Paper PMC10314905, “Architecture of a complete Bce-type antimicrobial peptide resistance module” (Nature Communications, 2023)

Legend:
BceAB-S complex [1] = molecular target: T1, BceAB-S complex (Bacillus subtilis, UniProt O34697); set-up: gene bceA; settings: MgCl2, 37 °C, 30 min, detergent solubilized
[2] = molecular target: T2, BceAB (isolated transporter) (Bacillus subtilis, UniProt O34697); settings: MgCl2, 37 °C, 30 min, detergent solubilized
T2 construct: gene bceA

BceAB-S complex [3] = molecular target: T1, BceAB-S complex; test: cryo-EM structure of the complex; assay type: binding; set-up: gene bceA; full-length; petDUET-1, E. coli C41(DE3); LMNG-solubilized; BceA:B:S 2:1:2; with Bacitracin export permease protein BceB; Sensor protein BceS; settings: 5 mM ATPγS, 5 mM MgCl2, LMNG; bound at Walker A motif and Tyr13 of BceA
[4] = molecular target: the molecule itself; test: cryo-EM structure; BceAB-S, co-expressed and co-purified complex in LMNG, incubated on ice with 5 mM ATPγS and 5 mM MgCl2 for 30 min before freezing
[5] = molecular target: T3, BceAB ABC transporter (BceA2:BceB1) (B. subtilis, UniProt O34697 2-253; O34741 1-646); test: cryo-EM structure; nucleotide-free BceAB-S, co-expressed and co-purified complex in LMNG at ~7 mg/mL; Titan Krios, K3; settings: both partners purified
T3 construct: BceA of Bacillus subtilis, as m1; BceB of Bacillus subtilis, as m2; The construct for isolated BceAB (without BceS) is not described here; also called BceAB transporter; isolated BceAB; source: E. coli C41(DE3), co-expressed (with or without BceS), purified (LMNG, Co3+-Talon, Superdex 200); not shown: His6, N-terminal, kept; copies: 2 + 1
T3 sequence 1: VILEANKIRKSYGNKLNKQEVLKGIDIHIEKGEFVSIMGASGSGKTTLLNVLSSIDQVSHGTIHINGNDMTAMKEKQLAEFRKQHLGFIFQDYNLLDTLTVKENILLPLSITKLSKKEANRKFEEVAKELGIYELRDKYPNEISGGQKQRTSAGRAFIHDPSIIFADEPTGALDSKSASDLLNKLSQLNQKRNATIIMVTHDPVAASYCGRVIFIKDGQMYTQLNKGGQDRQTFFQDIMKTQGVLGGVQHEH
T3 sequence 2: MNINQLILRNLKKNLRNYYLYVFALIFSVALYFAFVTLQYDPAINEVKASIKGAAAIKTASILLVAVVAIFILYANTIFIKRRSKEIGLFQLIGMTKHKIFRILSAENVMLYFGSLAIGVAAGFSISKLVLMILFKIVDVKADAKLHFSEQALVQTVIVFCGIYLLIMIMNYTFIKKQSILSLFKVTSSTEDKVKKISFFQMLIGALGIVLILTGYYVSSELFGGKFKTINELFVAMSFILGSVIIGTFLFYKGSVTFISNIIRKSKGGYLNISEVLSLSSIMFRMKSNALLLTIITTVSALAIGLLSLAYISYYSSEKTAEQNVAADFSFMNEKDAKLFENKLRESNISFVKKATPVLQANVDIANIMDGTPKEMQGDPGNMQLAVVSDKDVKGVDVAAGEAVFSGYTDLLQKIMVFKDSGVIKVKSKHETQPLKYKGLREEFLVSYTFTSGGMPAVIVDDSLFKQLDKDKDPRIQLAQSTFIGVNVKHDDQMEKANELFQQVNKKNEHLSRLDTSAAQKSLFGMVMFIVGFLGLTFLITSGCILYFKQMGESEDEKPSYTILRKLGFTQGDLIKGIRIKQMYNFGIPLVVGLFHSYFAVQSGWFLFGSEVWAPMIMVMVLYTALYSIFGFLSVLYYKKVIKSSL

[6] = molecular target: the molecule itself; test: as above

T1 sequence (O34697 whole entry, one chain of several): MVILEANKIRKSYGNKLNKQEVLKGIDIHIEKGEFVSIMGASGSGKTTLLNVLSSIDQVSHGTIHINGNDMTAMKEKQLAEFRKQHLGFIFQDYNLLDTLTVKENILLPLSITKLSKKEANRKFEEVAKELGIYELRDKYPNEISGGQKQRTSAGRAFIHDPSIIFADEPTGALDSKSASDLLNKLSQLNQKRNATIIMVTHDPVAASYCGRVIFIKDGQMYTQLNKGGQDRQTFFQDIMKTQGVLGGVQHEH
T2 sequence (O34697 whole entry, one chain of several): as above

Nc1ncnc2c1ncn2[C@@H]1O[C@H](COP(=O)(O)OP(=O)(O)OP(=O)(O)O)[C@@H](O)[C@H]1O [ATP]
colorimetric phosphate-release ATPase assay (BceAB-S complex [1]): The BceAB-S complex displayed significantly reduced maximal ATPase activity | colorimetric phosphate-release ATPase assay [2]: significantly reduced maximal ATPase activity compared to the isolated BceAB transporter

Nc1ncnc2c1ncn2[C@@H]1O[C@H](COP(=O)(O)OP(=O)(O)OP(O)(O)=S)[C@@H](O)[C@H]1O [ATPγS]
cryo-EM structure of the complex (BceAB-S complex [3]): ATPγS engages the Walker-A motif and Tyr13 in the A-loop of BceA

B1: BceA, ATPase (nucleotide binding domain) subunit of the ABC transporter BceAB (natural protein, B. subtilis)
chain: VILEANKIRKSYGNKLNKQEVLKGIDIHIEKGEFVSIMGASGSGKTTLLNVLSSIDQVSHGTIHINGNDMTAMKEKQLAEFRKQHLGFIFQDYNLLDTLTVKENILLPLSITKLSKKEANRKFEEVAKELGIYELRDKYPNEISGGQKQRTSAGRAFIHDPSIIFADEPTGALDSKSASDLLNKLSQLNQKRNATIIMVTHDPVAASYCGRVIFIKDGQMYTQLNKGGQDRQTFFQDIMKTQGVLGGVQHEH
notes: BceA of Bacillus subtilis; gene PCR amplified from B. subtilis genomic DNA together with the overlapping bceB gene; Two copies of BceA stand in the BceAB-S complex (BceA:B:S 2:1:2); No cleavage of the His tag is told; also called BceA NBDs; BceA subunits; not shown: His6, N-terminal, kept
binding result [4]: binds

B2: BceS sensor histidine kinase (natural protein, B. subtilis, UniProt O35044 1-334, looked up)
chain: MIKAFLIERRSWIAAFLFQQALMLFIAFVDPSISFGNVLYMVYLCILFFIIFLWFRYRKETAFYKSLKTWENNLDVTAINEPETPFEAMVERSIAGQTEHLKQTAARHRLALENEKDELMAWIHEVKTPLTAMHLIIDRMEEKALKSQLSYEWLRIHLLLDQQLHQKRISFIENDLSVEFIQLQPLIFKEIKDLQSWCIQKGIGFDIQLEAKEVLSDAKWLAFIIRQLLTNAVKYSEASEIEIKSFQKGEQTQLQVKDCGRGIDPKDVPRIFDKGFTSTTDHHDQASTGMGLYLAKKAAAPLLIHIDVESEFGAGTVFTLTFPIRNQFEHVISV
notes: BceS of Bacillus subtilis; gene PCR amplified from B. subtilis genomic DNA; Dimer in the BceAB-S complex; also called BceS kinase; BceS dimer
stoichiometry N [5]: 2 BceS per BceAB (BceA2:BceB1) | stoichiometry N [6]: 2
